This is an account of results in patent US20260126382A1, “INTELLIGENT NIR II PHOTOTHERMAL AND COLORIMETRIC SENSING TECHNOLOGY” (Nanyang Technological University, priority 2022, published 2026).

Series [1] concerns myrosinase (Myr). Put plainly: Effect of interfering substances (metal ions, small molecules, amino acids, EDTA) on the Myr test system. Format: biochemical. The note with it: interfering substances 1 mM, FIG. 17C. Here is the method: (§1) For Myr detection, Sin (2.5 mM, 30 μL) and GOx (5 mg/mL, 10 μL, according to previous literature (Jiang, C. et al., RSC Adv. 2017, 7, 44463-44469)) were mixed with different concentrations of Myr first, and reacted at 37° C. for 30 min to generate H2O2. Then, an acetate buffer containing TMB and AuNPs was added into the aforementioned solution, incubated at 45° C. for 25 min, and cooled to room temperature. Afterward, the solution was used for the analysis of Myr enzyme activity.
For the anti-interference experiments discussed below, Sin (2.5 mM, 30 μL) and GOx (5 mg/mL, 10 μL) were mixed with different interfering substances first and reacted at 37° C. for 30 min. Then, acetate buffer containing TMB and AuNPs were added into the above solution, incubated at 45° C. for 25 min, and cooled to room temperature, and afterwards, the solution was used for photothermal and colorimetric analysis.

Series [2] has as its system myrosinase (Myr). Put plainly: Effect of Sin concentration on the Sin+Myr+GOx+TMB+AuNPs system. Format: biochemical. As to conditions: Myr 0.5 mg/mL, GOx 0.5 mg/mL, TMB 1.5 mM, AuNPs 0.45 nM. Here is the method:
as §1
Before testing different Myr concentrations, it is necessary to determine the maximum Sin concentration that can be applied. FIG. 16 illustrates that when the concentration of Sin exceeds 0.75 mM, the working efficiency decreases and the blue color becomes faint because excess Sin binds to the active regulatory sites of Myr, thereby inhibiting the activity of Myr to hydrolyze Sin. As a result, 0.75 mM was selected as the maximum Sin concentration for detecting commercial Myr at varying concentrations and constructing a standard curve. As shown in FIGS. 17A-B and 18, when Sin was present at a concentration of 0.75 mM, Myr was detectable in the range of 0-345 mU/mL, and its linear detection range in the absorption spectrum was 0 to 172.5 mU/mL with an LOD of 2.96 mU/mL.

A short description of series [3]: Peroxidase-like (POD-like) activity in the TMB+H2O2 system, Abs1064 nm. Format: biochemical. As to conditions: TMB+H2O2 system with HRP, FIG. 11.
The conditions of series [4]: natural enzyme, from literature; cited from earlier work.

In the case of `[Cu+2]` [Cu^2+], the “inhibitory effect on Myr activity” value with myrosinase (Myr) [1] is listed as “strongest inhibitory effect”.
Same read-out and setting: in the case of `N[C@@H](CS)C(=O)O` [Cys] it was “inhibit Myr activity”; in that of `N[C@@H](CCC(=O)N[C@@H](CS)C(=O)NCC(=O)O)C(=O)O` [GSH], “inhibit Myr activity”.
Regarding `C=CC/C(=N/OS(=O)(=O)[O-])S[C@@H]1OC(CO)[C@@H](O)C(O)C1O.[K+]` (stereo partly shown) [Sin, Sinigrin], the “Sin concentration above which working efficiency decreases (excess Sin inhibiting the activity of Myr)” value with myrosinase (Myr) [2] was “exceeds 0.75 mM”.
Regarding `O=C1O[C@H]([C@@H](O)CO)C(O)=C1O` [Vc, Vitamin C], the “inhibitory effect on Myr activity” value with myrosinase (Myr) [1] is given as “inhibit Myr activity”.
For the compound horseradish peroxidase [HRP], the “slope of Abs1064 nm vs. c(HRP)” value in series [3] was found to be 0.04644 nM⁻¹. The “temperature beyond which activity is lost” value in series [4] is “exceeds 50 °C”.
